A short description of experiment [1]: Inhibitory activity was determined against bovine liver beta galactosidase.
A short description of experiment [2]: Inhibitory activity was determined against almonds Beta-glucosidase.
The nature of experiment [3]: Inhibitory activity was determined against Escherichia coli beta galactosidase.

The source of these data is BindingDB's records for doi:10.1016/S0960-894X(01)80688-0 (1994).

As to `OCC1C(O)C(O)C2OC(Nc3ccccc3)=NC12` (stereo unspecified) [4-Hydroxymethyl-2-phenylamino-4,5,6,6a-tetrahydro-3aH-cyclopentaoxazole-5,6-diol], the IC50 (in general, the midpoint of a concentration-inhibition curve) in experiment [1] is 3 µM; in experiment [2], > 300 µM; in experiment [3] it was > 300 µM.
For `OCC1(O)C(O)C(O)C2N=C(Nc3ccccc3)OC21` (stereo unspecified) [6-Hydroxymethyl-2-phenylamino-4,5,6,6a-tetrahydro-3aH-cyclopentaoxazole-4,5,6-triol], the IC50 in experiment [1] is 153 µM; in experiment [2] it was > 300 µM; in experiment [3] it was > 300 µM.
